Test results: patent publication US8541588B2, “Sulfonamide derivatives” (Pfizer Limited, priority 2009, dated 2013)

Molecular target: T1, Nav1.7 (or SCN9A) channel; HEK cells stably transfected with hSCN9A (Homo sapiens, UniProt Q15858)
T1 construct: expressed in transfected cells
Test: Nav1.7 block, PatchXpress 7000 automated whole-cell voltage clamp, estimated IC50 (EIC50)
Type: cell-based
Conditions: PatchXpress platform, estimated IC50

[1] = hSCN9A HEK cells held at V1/2 of inactivation
[2] = hSCN9A HEK cells, Examples 815-1040
[3] = hSCN9A HEK cells, Examples 283-814

T1 sequence (Q15858 whole entry): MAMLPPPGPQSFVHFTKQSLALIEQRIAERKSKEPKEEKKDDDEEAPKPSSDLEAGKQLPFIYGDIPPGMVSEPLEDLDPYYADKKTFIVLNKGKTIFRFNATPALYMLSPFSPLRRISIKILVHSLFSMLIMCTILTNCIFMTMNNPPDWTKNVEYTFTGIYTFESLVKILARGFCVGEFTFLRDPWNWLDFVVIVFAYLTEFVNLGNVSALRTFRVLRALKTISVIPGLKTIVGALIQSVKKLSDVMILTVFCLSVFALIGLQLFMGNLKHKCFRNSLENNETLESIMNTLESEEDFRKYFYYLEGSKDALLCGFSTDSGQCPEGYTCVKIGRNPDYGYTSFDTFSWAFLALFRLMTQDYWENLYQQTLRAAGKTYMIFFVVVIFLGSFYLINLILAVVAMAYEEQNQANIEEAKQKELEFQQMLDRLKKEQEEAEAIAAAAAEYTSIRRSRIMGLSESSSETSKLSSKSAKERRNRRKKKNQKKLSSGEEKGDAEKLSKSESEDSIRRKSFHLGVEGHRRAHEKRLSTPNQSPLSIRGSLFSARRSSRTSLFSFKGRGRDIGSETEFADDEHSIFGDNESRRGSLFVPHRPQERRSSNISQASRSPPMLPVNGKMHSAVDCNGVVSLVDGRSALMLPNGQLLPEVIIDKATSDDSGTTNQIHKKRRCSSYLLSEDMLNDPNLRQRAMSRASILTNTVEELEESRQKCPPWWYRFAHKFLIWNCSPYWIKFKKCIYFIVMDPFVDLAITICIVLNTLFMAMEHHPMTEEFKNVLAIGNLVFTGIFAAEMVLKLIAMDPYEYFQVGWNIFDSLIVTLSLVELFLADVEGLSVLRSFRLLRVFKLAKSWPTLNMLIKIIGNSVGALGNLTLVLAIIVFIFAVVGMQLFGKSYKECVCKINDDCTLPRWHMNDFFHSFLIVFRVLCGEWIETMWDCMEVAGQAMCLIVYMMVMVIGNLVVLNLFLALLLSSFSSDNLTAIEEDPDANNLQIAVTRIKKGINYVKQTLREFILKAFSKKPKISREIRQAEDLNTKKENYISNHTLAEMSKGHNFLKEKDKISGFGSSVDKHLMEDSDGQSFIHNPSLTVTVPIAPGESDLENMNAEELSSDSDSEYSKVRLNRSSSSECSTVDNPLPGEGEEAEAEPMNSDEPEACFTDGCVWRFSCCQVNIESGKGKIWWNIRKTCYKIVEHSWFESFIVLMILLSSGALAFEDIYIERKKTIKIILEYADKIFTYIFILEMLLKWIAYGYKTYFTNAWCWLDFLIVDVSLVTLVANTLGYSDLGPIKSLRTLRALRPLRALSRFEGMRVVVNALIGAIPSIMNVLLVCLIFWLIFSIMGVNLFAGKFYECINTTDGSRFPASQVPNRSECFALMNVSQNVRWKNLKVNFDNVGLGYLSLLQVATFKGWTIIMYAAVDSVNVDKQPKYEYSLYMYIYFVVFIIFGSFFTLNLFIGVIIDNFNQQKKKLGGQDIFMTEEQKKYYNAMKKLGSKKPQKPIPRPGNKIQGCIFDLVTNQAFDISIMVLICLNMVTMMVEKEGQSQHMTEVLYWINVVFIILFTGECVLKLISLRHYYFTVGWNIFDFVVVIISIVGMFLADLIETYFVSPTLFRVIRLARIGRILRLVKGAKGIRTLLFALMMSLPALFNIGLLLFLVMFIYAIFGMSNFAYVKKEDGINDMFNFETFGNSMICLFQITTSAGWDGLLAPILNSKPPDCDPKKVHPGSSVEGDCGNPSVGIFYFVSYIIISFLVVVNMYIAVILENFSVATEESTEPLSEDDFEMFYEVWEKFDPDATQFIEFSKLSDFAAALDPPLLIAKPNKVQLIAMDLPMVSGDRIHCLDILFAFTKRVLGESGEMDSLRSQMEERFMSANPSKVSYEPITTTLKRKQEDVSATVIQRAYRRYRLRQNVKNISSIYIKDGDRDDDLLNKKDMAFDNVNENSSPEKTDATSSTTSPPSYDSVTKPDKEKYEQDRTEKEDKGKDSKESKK

Row | IC50 [1] [nM] | IC50 [3] [nM] | SMILES | other results
1 | 60 |  | Cc1ccc(Oc2ccc(S(=O)(=O)Nc3nccs3)cc2F)c(-c2ccnn2C)c1 [Example 222, 3-fluoro-4-(4-methyl-2-(1-methyl-1H-pyrazol-5-yl)phenoxy)-N-(thiazol-2-yl)benzenesulfonamide] | 
2 |  |  | N#Cc1cc(S(=O)(=O)Nc2cscn2)ccc1Oc1ccc(C(F)(F)F)cc1-c1ccnnc1 [Example 953, 3-cyano-4-[2-pyridazin-4-yl-4-(trifluoromethyl)phenoxy]-N-1,3-thiazol-4-ylbenzenesulfonamide] | IC50 [2]: 110 nM
3 | 1190 |  | O=S(=O)(Nc1nccs1)c1ccc(Oc2cnn(Cc3ccc(Cl)cc3)c2)cc1F [Example 206, 4-(1-(4-chlorobenzyl)-1H-pyrazol-4-yloxy)-2-fluoro-N-(thiazol-2-yl)benzenesulfonamide] | 
4 |  | 220 | CC(C)c1cc(-n2cc(Cl)cn2)ccc1Oc1ccc(S(=O)(=O)Nc2nccs2)cc1C#N [Example 353, 4-[4-(4-chloro-1H-pyrazol-1-yl)-2-isopropylphenoxy]-3-cyano-N-1,3-thiazol-2-ylbenzenesulfonamide] | 
5 |  |  | O=S1(=O)CCC(n2nccc2-c2cc(Cl)ccc2Oc2cc(F)c(S(=O)(=O)Nc3ncns3)cc2F)C1 (stereo not drawn) [Example 866, 4-{4-chloro-2-[1-(1,1-dioxidotetrahydro-3-thienyl)-1H-pyrazol-5-yl]phenoxy}-2,5-difluoro-N-1,2,4-thiadiazol-5-ylbenzenesulfonamide] | IC50 [2]: 14 nM
6 |  | 2500 | CCn1nc(C(F)(F)F)cc1-c1ccc(Oc2ccc(S(=O)(=O)Nc3ccon3)cc2C#N)cc1 [Example 337, 3-cyano-4-{4-[1-ethyl-3-(trifluoromethyl)-1H-pyrazol-5-yl]phenoxy}-N-isoxazol-3-ylbenzenesulfonamide] | 
7 |  | 390 | N#Cc1cc(S(=O)(=O)Nc2nccs2)ccc1Oc1ccc(Cl)cc1CN1CCC(O)C1 (stereo not drawn) [Example 357, 4-{4-chloro-2-[(3-hydroxypyrrolidin-1-yl)methyl]phenoxy}-3-cyano-N-1,3-thiazol-2-ylbenzenesulfonamide] | 
8 |  | 4.6 | Cn1nccc1-c1cc(OC(F)(F)F)ccc1Oc1ccc(S(=O)(=O)Nc2ncns2)cc1C#N [Example 795, 3-cyano-4-[2-(1-methyl-1H-pyrazol-5-yl)-4-(trifluoromethoxy)phenoxy]-N-1,2,4-thiadiazol-5-ylbenzenesulfonamide] | 
9 |  |  | Cc1cc(S(=O)(=O)Nc2nncs2)c(F)cc1Oc1ccc(Cl)cc1-c1ccnnc1 [Example 943, 4-(4-chloro-2-pyridazin-4-ylphenoxy)-2-fluoro-5-methyl-N-1,3,4-thiadiazol-2-ylbenzenesulfonamide] | IC50 [2]: 77 nM
10 |  | 44 | CC(C)(C)n1nccc1-c1cc(Cl)ccc1Oc1ccc(S(=O)(=O)Nc2ncns2)cc1Cl [Example 474, 4-[2-(1-tert-butyl-1H-pyrazol-5-yl)-4-chlorophenoxy]-3-chloro-N-1,2,4-thiadiazol-5-ylbenzenesulfonamide] | 
11 | 2280 |  | N#Cc1cc(S(=O)(=O)Nc2ncns2)ccc1Oc1cc(C(F)(F)F)nn1-c1ccc(F)c(F)c1 [Example 59, 3-cyano-4-{[1-(3,4-difluorophenyl)-3-(trifluoromethyl)-1H-pyrazol-5-yl]oxy}-N-1,2,4-thiadiazol-5-ylbenzenesulfonamide] | 
12 | 1670 |  | N#Cc1cc(S(=O)(=O)Nc2nccs2)ccc1Oc1ccc(-c2ccccc2)cc1 [Example 187, 4-(biphenyl-4-yloxy)-3-cyano-N-thiazol-2-yl-benzenesulfonamide] | 
13 |  | 77 | N#Cc1cc(S(=O)(=O)Nc2ncns2)ccc1Oc1ccc(Cl)cc1-c1ccnn1C(F)F [Example 510, 4-{4-chloro-2-[1-(difluoromethyl)-1H-pyrazol-5-yl]phenoxy}-3-cyano-N-1,2,4-thiadiazol-5-ylbenzenesulfonamide] | 
14 | 3170 |  | Cc1cnc(NS(=O)(=O)c2ccc(Oc3ccccc3-c3ccccc3)c(C#N)c2)s1 [Example 100, 4-(biphenyl-2-yloxy)-3-cyano-N-(5-methyl-1,3-thiazol-2-yl)benzenesulfonamide] | 
15 |  |  | O=S(=O)(Nc1ncns1)c1ccc(Oc2ccc(C(F)(F)F)cc2-c2ccnnc2)c(Cl)c1 [Example 928, 3-chloro-4-[2-pyridazin-4-yl-4-(trifluoromethyl)phenoxy]-N-1,2,4-thiadiazol-5-ylbenzenesulfonamide] | IC50 [2]: 3.6 nM
16 |  | 480 | Cn1nccc1-c1cc(Cl)ccc1Oc1ccc(S(=O)(=O)Nc2ccncn2)cc1C#N [Example 361, 4-[4-chloro-2-(1-methyl-1H-pyrazol-5-yl)phenoxy]-3-cyano-N-pyrimidin-4-ylbenzenesulfonamide] | 
17 |  | 2500 | N#Cc1cc(S(=O)(=O)Nc2nccs2)ccc1Oc1cccc(-n2cccn2)c1 [Example 319, 3-cyano-4-[3-(1H-pyrazol-1-yl)phenoxy]-N-1,3-thiazol-2-ylbenzenesulfonamide] | 
18 | 380 |  | N#Cc1cc(S(=O)(=O)Nc2ncns2)ccc1Oc1ccc(F)cc1-c1cc(F)ccc1F [Example 33, 3-cyano-N-1,2,4-thiadiazol-5-yl-4-[(2′,5,5′-trifluorobiphenyl-2-yl)oxy]benzenesulfonamide] | 

Row | IC50 [1] [nM] | IC50 [3] [nM] | SMILES | other results
19 |  | 400 | N#Cc1cc(S(=O)(=O)Nc2nccs2)ccc1Oc1ccc(Br)cc1CN1CCCC1 [Example 355, 4-[4-bromo-2-(pyrrolidin-1-ylmethyl)phenoxy]-3-cyano-N-1,3-thiazol-2-ylbenzenesulfonamide] | 
20 |  | 2.1 | O=S(=O)(Nc1ncns1)c1cc(F)c(Oc2ccc(C(F)(F)F)cc2-c2ccn[nH]2)cc1F [Example 789, 2,5-difluoro-4-[2-(1H-pyrazol-5-yl)-4-(trifluoromethyl)phenoxy]-N-1,2,4-thiadiazol-5-ylbenzenesulfonamide] | 
21 | 4220 |  | CC(C)c1nn(-c2ccccc2Cl)cc1Oc1ccc(S(=O)(=O)Nc2ncns2)cc1C#N [Example 67, 4-{[1-(2-chlorophenyl)-3-isopropyl-1H-pyrazol-4-yl]oxy}-3-cyano-N-1,2,4-thiadiazol-5-ylbenzenesulfonamide] | 
22 |  | 240 | N#Cc1cc(S(=O)(=O)Nc2cscn2)ccc1Oc1ccc(Cl)cc1-c1cn[nH]c1 [Example 767, 4-[4-chloro-2-(1H-pyrazol-4-yl)phenoxy]-3-cyano-N-1,3-thiazol-4-ylbenzenesulfonamide] | 
23 |  | 210 | Cn1nccc1-c1cc(CCCO)ccc1Oc1ccc(S(=O)(=O)Nc2ncc(F)s2)cc1C#N [Example 715, 3-cyano-N-(5-fluoro-1,3-thiazol-2-yl)-4-[4-(3-hydroxypropyl)-2-(1-methyl-1H-pyrazol-5-yl)phenoxy]benzenesulfonamide] | 
24 |  |  | CSc1nnc(NS(=O)(=O)c2ccc(Oc3ccc(Cl)cc3-c3ccnn3C)c(C#N)c2)s1 [Example 891, 4-[4-chloro-2-(1-methyl-1H-pyrazol-5-yl)phenoxy]-3-cyano-N-[5-(methylthio)-1,3,4-thiadiazol-2-yl]benzenesulfonamide] | IC50 [2]: 780 nM
25 | 2030 |  | Cc1cccc(-c2ccc(F)cc2)c1Oc1ccc(S(=O)(=O)Nc2ncns2)cc1C#N [Example 39, 3-cyano-4-[(4′-fluoro-3-methylbiphenyl-2-yl)oxy]-N-1,2,4-thiadiazol-5-ylbenzenesulfonamide] | 
26 | 12200 |  | COc1ccc(-n2cc(Oc3ccc(S(=O)(=O)Nc4ncns4)cc3C#N)c(C(C)C)n2)cc1 [Example 65, 3-cyano-4-{[3-isopropyl-1-(4-methoxyphenyl)-1H-pyrazol-4-yl]oxy}-N-1,2,4-thiadiazol-5-ylbenzenesulfonamide] | 
27 |  | 22000 | Cn1nccc1-c1cc(Cl)ccc1Oc1ccc(S(=O)(=O)Nc2ncc(C#N)cn2)cc1C#N [Example 463, 4-[4-chloro-2-(1-methyl-1H-pyrazol-5-yl)phenoxy]-3-cyano-N-(5-cyanopyrimidin-2-yl)benzenesulfonamide] | 
28 |  | 580 | Cn1nc(C(F)(F)F)cc1-c1ccc(Oc2cc(F)c(S(=O)(=O)Nc3cscn3)cc2Cl)c(C#N)c1 [Example 524, 5-chloro-4-{2-cyano-4-[1-methyl-3-(trifluoromethyl)-1H-pyrazol-5-yl]phenoxy}-2-fluoro-N-1,3-thiazol-4-ylbenzenesulfonamide] | 
29 |  | 2.5 | N#Cc1cc(S(=O)(=O)Nc2nccs2)ccc1Oc1ccc(I)cc1-c1ccn[nH]1 [Example 391, 3-cyano-4-[4-iodo-2-(1H-pyrazol-5-yl)phenoxy]-N-1,3-thiazol-2-ylbenzenesulfonamide] | 
30 |  |  | N#Cc1cc(S(=O)(=O)Nc2ncns2)ccc1Oc1ccc(Cl)cc1-c1cccc(C(=O)NC2CC2)c1 [Example 864, 5′-chloro-2′-{2-cyano-4-[(1,2,4-thiadiazol-5-ylamino)sulfonyl]phenoxy}-N-cyclopropylbiphenyl-3-carboxamide] | IC50 [2]: 4.4 nM
31 |  | 2800 | N#Cc1cc(S(=O)(=O)Nc2nccs2)ccc1Oc1ccc(-c2ccccc2)nc1 [Example 646, 3-cyano-4-[(6-phenylpyridin-3-yl)oxy]-N-1,3-thiazol-2-ylbenzenesulfonamide] | 
32 | 680 |  | N#Cc1cc(S(=O)(=O)Nc2ncns2)ccc1Oc1cccc(F)c1-c1ccn[nH]1 [Example 89, 3-cyano-4-[3-fluoro-2-(2H-pyrazol-3-yl)-phenoxy]-N-[1,2,4]thiadiazol-5-yl-benzenesulfonamide] | 
33 | 210 |  | O=S(=O)(Nc1nccs1)c1ccc(Oc2ccc(F)cc2-c2ccnn2CCO)c(F)c1 [Example 237, 3-fluoro-4-{4-fluoro-2-[1-(2-hydroxyethyl)-1H-pyrazol-5-yl]phenoxy}-N-1,3-thiazol-2-ylbenzenesulfonamide] | 
34 |  | 15 | Cn1nccc1-c1cc(Br)ccc1Oc1ccc(S(=O)(=O)Nc2nccs2)cc1C#N [Example 705, 4-[4-bromo-2-(1-methyl-1H-pyrazol-5-yl)phenoxy]-3-cyano-N-1,3-thiazol-2-ylbenzenesulfonamide] | 
35 |  | 24000 | N#Cc1cc(S(=O)(=O)Nc2ccc(C(F)(F)F)cn2)ccc1Oc1ccccc1-c1ccccc1 [Example 770, 4-(biphenyl-2-yloxy)-3-cyano-N-[5-(trifluoromethyl)pyridin-2-yl]benzenesulfonamide] | 
36 |  | 97 | N#Cc1cc(S(=O)(=O)Nc2ncc(Cl)s2)ccc1Oc1ccc(F)cc1-c1ccnc(N)c1 [Example 584, 4-[2-(2-Aminopyridin-4-yl)-4-fluorophenoxy]-N-(5-chloro-1,3-thiazol-2-yl)-3-cyanobenzenesulfonamide] | 
